These results are taken from PMC9321647, “Curcumin-Based β-Diketo Ligands for Ga^3+: Thermodynamic Investigation of Potential Metal-Based Drugs” (Pharmaceuticals, 2022).

Common to all, as to type: physicochemical
Series [1] in a line: Keto-enol/diketo tautomer amounts by 1H NMR. Particulars: molar percentage, MeOD-d4, 298 K; for KE (%) amount of keto–enol form: for 2 includes KE form of the Z isomer (6%). As to the method:
NMR spectra were recorded by means of a Bruker Biospin FT-NMR AVANCE III HD (600 MHz) spectrometer equipped with a CryoProbe BBO H&F 5 mm in inverse detection. The nominal frequencies were 150.90 MHz for ^13C and 600.13 MHz for ^1H, respectively. For each sample, 1–5 mg were weighed and diluted up to 0.6 mL with a proper solvent in a 5 mm NMR tube; 90° pulse was calibrated for each sample, and standard NMR parameters were used to achieve quantitative results (relaxation delay, 10 s). Proton and carbon chemical shifts are given in parts per million (ppm) versus external TMS and were determined by reference to the solvent residual signals. Typical 2D homo- and heteronuclear techniques were used for assignment, i.e., ^1H,^1H COSY, ^1H,^13C HSQC, ^1H,^13C HMBC. NMR investigations of Ga^3+:L systems were performed in MeOD-d4 by adding small amounts of a Ga(NO3)3 solution (10 μL each) to 1 mM ligand solution (0.6 mL) until reaching the desired metal-to-ligand molar ratio. The complexation reaction is fast, and spectra were registered few minutes after the addition. Two-dimensional ^1H,^13C heteronuclear multiple bond correlation (HMBC) experiments (hmbcgpndqf in Bruker library) were performed via heteronuclear zero and double quantum coherence, optimized on long-range couplings (^3/4JHC = 8 Hz), with no decoupling during acquisition, and gradient pulses were used for selection. The relative percentages of the isomeric forms were estimated on the basis of the NMR data. Particularly, ^1H NMR spectra were acquired in quantitative conditions being D1 (relaxation delay) at least five times the T1 of the slowest relaxing signal of interest. The raw data were Fourier-transformed, and then the processing was performed by zero filling (SI = TD), line broadening (lb 0.3 Hz), accurate phasing and correcting the baseline. The most isolated signals were selected for integration, i.e., the vinyl protons (H-3 and H-4), and an average of the integrated area (A) of H-3 and H-4 was used for relative quantitation, according to the following equation: %Tautomeri=(A(H−3)i+(A(H−4)i)/2/∑i(A(H−3)i+(A(H−4)i)/2×100

Series [2] can be described thus: Spectrophotometric pH-metric titrations of Ga^3+:ligand systems (stability constants, pGa, speciation). Particulars: for logK11 apparent formation constant (Ga^3+, M:L 1:1) / logK12 apparent formation constant (Ga^3+, M:L 1:2) / logK13 apparent formation constant (Ga^3+, M:L 1:3): estimated from logβMLH; for Prevailing Species (pH 5.5) / Prevailing Species (pH 7.4): Ga^3+ complex species; for Prevailing Species (pH 7.4): ** possible formation of gallium hydroxide species; for pGa (−log[Ga^3+]free): [Ga^3+]total = 1 μM, [L]total = 10 μM, pH 7.4, 25 °C. As to the method: (§1) UV–visible spectra were recorded with a JASCO V-570 UV/Vis/NIR spectrophotometer at 298 K in the 250–600 nm spectral range employing quartz cells (1 cm optical path). To perform spectrophotometric titrations, ligands (denoted generally as L in the following) were dissolved in methanol to give a mother solution (2.50 mM), that was then diluted in water in order to obtain a final concentration of 50 μM. The metal/ligand (M:L) solutions were obtained by adding appropriate quantities of Ga(NO3)3 as methanol solutions (5–10 mM) in order to obtain the metal-to-ligand 1:1 molar ratio (L = 50 μM and V = 25 mL). For both L and M:L systems, pH (initial value of about 5) was varied by adding small amounts (<1 μL) of concentrated NaOH (4 M) up to ca. pH 11, thus to consider volume variations negligible. To evaluate the complexation ratio, constant additions of the M solution (10 µL each time, M = 10^–2 M) were dropped into the ligand solution (V = 25 mL, L = 50 μM) using a micropipette in order to reach different M:L molar ratios. A constant ionic strength (NaNO3, 0.1 M) was maintained in all experiments. Spectrophotometric investigations of iron(III) systems were performed in the same conditions; the Fe^3+ solution was freshly prepared in methanol starting from Fe(NO3)3·9H2O. The overall protonation constants (logβqr) and the overall stability constants of metal complexes (logβpqr) were evaluated from spectrophotometric data. The stability constants (βpqr), defined by the following equations:(3) pM^m++qL^l^−+rH^+⇌MpLqHr(mp−lq+r) (4) βpqr=[MpLqHr(mp−lq+r)]/[M^m+]^p·[L^l−]^q·[H^+]^r where L is the ligand in the completely dissociated form and H is proton, were refined using least-squares calculation in HypSpec. The results of least-squares calculation include the standard deviations and correlation coefficients of the refined parameters. The quantities are obtained by performing error propagation calculation from the experimental errors onto the parameters. The stability constant refinement furnishes least-squares estimates of the standard deviation, σ, of the stability constant β. The error on logβ is calculated as follows: σ(logβ) = [log(β + σ) − log(β − σ)]/2.
Hydroxide species, such as [Ga(OH)2]^+, were taken into account for calculations. The hydrolysis constants for Ga^3+ are as follows: logβ1,1,0 = −3.93; logβ2,1,0 = −7.73; logβ3,1,0 = −12.38; logβ4,1,0 = −15.96; logβ32,13,0 = −66.3; logβ3,1,0(s) = −3.54 [43]; pGa is defined as (−log[Ga^3+]free) and is calculated at specific conditions (Ga^3+total = 1 μM, Ltotal = 10 μM, pH 7.4, 25 °C). For the calculation of the iron(III) overall stability constants, the presence of [Fe(OH)]^2+, [Fe(OH)2]^+ and [Fe(OH)3] species was taken into account.

Series [3] is described as follows: Spectrophotometric pH titrations of ligands (protonation constants, pKa). The settings on record: for logβ011 overall protonation constant / logβ012 overall protonation constant / logβ013 overall protonation constant / logβ014 overall protonation constant: HypSpec, spectrophotometric data; for pKa: aqueous solution (methanol stock diluted in water); for prevailing charge form at physiological pH (7.4): pH 7.4, species distribution. How it is done:
as §1

The nature of series [4]: Kinetic stability of ligands in simulated physiological conditions (UV-Vis). The settings on record: for Stability: percentage of the residual ligand after 4 h: PBS, pH 7.4, 37 °C in darkness; for Stability ranking (residual ligand after 4 h): rank among the 7 ligands, 1 = most stable. How it is done:
The chemical stability of ligands and metal complexes at the M:L 1:L molar ratio at 37 °C in darkness was evaluated by UV−Vis spectroscopy as a change in absorbance in the 250−600 nm range over an overall period of 8 h. Solutions (5.0 × 10^–5 mol L^–1) of the ligands were prepared in 0.1 mol L^–1 phosphate-buffered solution (PBS) at pH 7.4. Spectra were recorded every 30 min. All profiles were linearized as the hyperbolic function defined by Equation (2), which represents an empirical model that describes drug decomposition or release well [42]:(2) t/f%=at+b where f% is the percentage of the residual compound at time t (min) referred to the starting concentration at time zero determined by reading the absorbance at λmax.

The mark [5] stands for this setting: 298 K, calculated from logβ values, * = keto–enol moiety dissociation, read-out: pKa1.
Where [6] appears, read: 298 K, calculated from logβ values, * = keto–enol moiety dissociation, read-out: pKa2.
[7] abbreviates: 298 K, calculated from logβ values, * = keto–enol moiety dissociation, read-out: pKa3.
Setting [8] is: 298 K, calculated from logβ values, read-out: pKa4.
Where [9] appears, read: 298 K, calculated from logβ values, * = keto–enol moiety dissociation.

Where two headings read alike, the source gives them in different places. Marks after values point to notes of the source that are not given here.

With `COc1cc(/C=C/C(O)=C/C(C)=O)ccc1OCCCBr` [Compound 2, (3Z,5E)-6-[4-(3-bromopropoxy)-3-methoxyphenyl]-4-hydroxyhexa-3,5-dien-2-one], in series [1], the “KK (%) amount of diketo form” value was 12% and the “KE (%) amount of keto–enol form” value is given as 88 * %. In series [2] (298 K, HypSpec), the “log β 110 overall stability constant (Ga^3+)” value was 8.129 (9), the “log β 120 overall stability constant (Ga^3+)” value is 15.185 (4) and the “log β 130 overall stability constant (Ga^3+)” value is recorded as 20.45 (3). Besides, in series [2] (298 K), the “logK11 apparent formation constant (Ga^3+, M:L 1:1)” value (shortened to “logK11 apparent formation constant”) is 8.129 (9); the “logK12 apparent formation constant (Ga^3+, M:L 1:2)” value is 15.185; the “logK13 apparent formation constant (Ga^3+, M:L 1:3)” value was 20.45. Moreover, in series [2], the “Prevailing Species (pH 5.5)” value was “[Ga(L)3]”, the “Prevailing Species (pH 7.4)” value was “[Ga(L)3]” and the “pGa (−log[Ga^3+]free)” value was determined as 13.1. In addition, the “logβ011 overall protonation constant” value in series [3] (298 K) is on record as 10.903 (8). The pKa in series [3] (setting [5]) is 10.9. Further, in series [4], the “Stability: percentage of the residual ligand after 4 h” value is listed as 83% and the “Stability ranking (residual ligand after 4 h)” value is 1.

With `O=C(O)CCC(C(=O)/C=C/c1ccc(O)cc1)C(=O)/C=C/c1ccc(O)cc1` [Compound 6, (6E)-7-(4-hydroxyphenyl)-4-[(2E)-3-(4-hydroxyphenyl)prop-2-enoyl]-5-oxohept-6-enoic acid], in series [1], the “KK (%) amount of diketo form” value turned out to be 75% and the “KE (%) amount of keto–enol form” value was 25%. In series [2] (298 K, HypSpec), the “log β 112 overall stability constant (Ga^3+)” value is listed as 27.79 (5) and the “log β 113 overall stability constant (Ga^3+)” value was 34.09 (5). The “logK11 apparent formation constant” value in series [2] (298 K) was 6.67. Further, in series [2], the “pGa (−log[Ga^3+]free)” value was found to be 14.0. For the same compound, in series [3] (298 K), the “logβ011 overall protonation constant” value is reported as 11.42 (2), the “logβ012 overall protonation constant” value was 21.12 (6), the “logβ013 overall protonation constant” value is reported as 29.76 (7) and the “logβ014 overall protonation constant” value was 34.62 (5). In addition, the pKa in series [3] (setting [5]) was approximately 5. The pKa in series [3] (setting [6]) is 8.64. In addition, the pKa in series [3] (setting [7]) was 9.7. Further, in series [3] (setting [8]), the pKa is 11.4. The “prevailing charge form at physiological pH (7.4)” value in series [3] is “negatively charged”. Further, in series [4], the “Stability: percentage of the residual ligand after 4 h” value was 73% and the “Stability ranking (residual ligand after 4 h)” value was 4.

On to `COc1cc(/C=C/C(=O)C(CCC(=O)O)C(=O)/C=C/c2ccc(O)c(OC)c2)ccc1O` [Compound 7, (6E)-7-(3-methoxy-4-hydroxyphenyl)-4-[(2E)-3-(3-methoxy-4-hydroxyphenyl)prop-2-enoyl]-5-oxohept-6-enoic acid], for which, in series [1], the “KK (%) amount of diketo form” value amounted to 75% and the “KE (%) amount of keto–enol form” value amounted to 25%. Further, in series [2] (298 K, HypSpec), the “log β 112 overall stability constant (Ga^3+)” value is given as 28.29 (5) and the “log β 113 overall stability constant (Ga^3+)” value is 36.51 (6). The “logK11 apparent formation constant” value in series [2] (298 K) is reported as 6.68. For the same compound, in series [2], the “Prevailing Species (pH 5.5)” value was “[Ga(H2L)2]^+”, the “Prevailing Species (pH 7.4)” value is “[Ga(H2L)2]^+ **” and the “pGa (−log[Ga^3+]free)” value stood at 15.3. Besides, in series [3] (298 K), the “logβ011 overall protonation constant” value was 12.22 (2), the “logβ012 overall protonation constant” value was 21.61 (5), the “logβ013 overall protonation constant” value is given as 29.98 (4) and the “logβ014 overall protonation constant” value is listed as 34.92 (9). In addition, the pKa in series [3] (setting [5]) is approximately 5. In addition, the pKa in series [3] (setting [6]) is 8.37. Also, the pKa in series [3] (setting [7]) is 9.39. Further, the pKa in series [3] (setting [8]) was 12.2. Further, in series [3], the “prevailing charge form at physiological pH (7.4)” value is “negatively charged”. For the same compound, in series [4], the “Stability: percentage of the residual ligand after 4 h” value is given as 79% and the “Stability ranking (residual ligand after 4 h)” value was 2.

Consider “(3Z,5E)-4-hydroxy-6-(3-methoxy-4-methylphenyl)hexa-3,5-dien-2-one [Compound 1]”, for which, in series [1], the “KK (%) amount of diketo form” value is reported as 4% and the “KE (%) amount of keto–enol form” value is given as 96%. In series [2] (298 K, HypSpec), the “log β 110 overall stability constant (Ga^3+)” value was 11.78 (4), the “log β 111 overall stability constant (Ga^3+)” value is on record as 17.59 (3), the “log β 120 overall stability constant (Ga^3+)” value is reported as 20.30 (5) and the “log β 122 overall stability constant (Ga^3+)” value is 34.77(3). Besides, in series [2] (298 K, HypSpec), the “log β 130 overall stability constant (Ga^3+)” value was 28.37 (7) and the “log β 133 overall stability constant (Ga^3+)” value is 49.7 (4). In series [2] (298 K), the “logK11 apparent formation constant” value was 7.38 (3); the “logK12 apparent formation constant (Ga^3+, M:L 1:2)” value is 14.35 (3); the “logK13 apparent formation constant (Ga^3+, M:L 1:3)” value is 19.1 (4). In series [2], the “Prevailing Species (pH 5.5)” value is “[Ga(HL)3]”, the “Prevailing Species (pH 7.4)” value is “[Ga(L)3]^3−” and the “pGa (−log[Ga^3+]free)” value is reported as 19.0. Moreover, in series [3] (298 K), the “logβ011 overall protonation constant” value was 10.212 (2) and the “logβ012 overall protonation constant” value is 18.509 (3). Also, in series [3] (setting [9]), the pKa1 was 8.297 (5) and the pKa2 is given as 10.212 (2) *. Moreover, in series [4], the “Stability: percentage of the residual ligand after 4 h” value is 77% and the “Stability ranking (residual ligand after 4 h)” value was 3.
